Reference: PMC7226839, “Modulation of STAT3 Signaling, Cell Redox Defenses and Cell Cycle Checkpoints by β-Caryophyllene in Cholangiocarcinoma Cells: Possible Mechanisms Accounting for Doxorubicin Chemosensitization and Chemoprevention” (Cells, 2020)
Counter-ions that a name gives are not always drawn. Like-named read-outs stand apart in the source and are kept apart here.

Legend:
[1] = test system: Mz-ChA-1 cholangiocarcinoma cells; experiment: Cell cycle analysis (PI flow cytometry); type: cell-based, human; settings: Mz-ChA-1, 24 h
Experimental: Analysis of cell cycle progression was performed by applying a one parameter flow cytometric method, in which cell cycle distribution was evaluated on the basis of DNA content. Briefly, after treatments, the harvested cells (about 1 × 10^6 cells) were fixed in ice cold 70% ethanol and stored for at least 2 h at 4 °C. Thereafter, the ethanol-suspended cells were separated by centrifugation, rinsed in PBS, then resuspended in a propidium iodide (PI) staining solution, containing 0.1% v/v Triton X-100, 10 μg/mL PI and 100 μg/mL DNase-free RNase A in PBS and stored at 4 °C in the dark for at least 30 min. For each sample, the mean fluorescence of PI (maximum excitation of PI bound to DNA at 536 nm; emission at 617 nm) in 50,000 cells was measured using a BD Accuri^TM C6 flow cytometer FL2 channel (BD Biosciences, Milan, Italy) and deconvolution of the DNA content frequency histograms, to estimate the proportions of cells in the respective phases of the cycle, was made by Modfit 4.1 software (Verity Software House, Topsham, ME, USA).

[2] = test system: H69 noncancerous cholangiocytes; experiment: MTT cytotoxicity and combination assay; type: cell-based; settings: for IC50: combination with 50 µM β-caryophyllene; for cytotoxicity: H69, 100 μM
Experimental: (§3) To perform the assay, the cells were grown for 24 h into 96-well microplates (2 × 10^4 cells/well), then treated with the test substances and incubated according to the applied protocol schedule [26]. At the end of incubation, the cytotoxicity was measured by the 3-[4,5-dimethylthiazol-2-yl] -2,5-diphenyl tetrazolium bromide (MTT) assay, using an Epoch Microplate Spectrophotometer (BioTek, AHSI, Milan Italy). At least three biologic replicates, in which each concentration was tested in triplicate, were made. Comparing the number of viable cells in each treatment respect to the vehicle control allows to measure a cell viability reduction. The effect of the treatment was considered as cytotoxic when at least a 30% lowering of cell viability occurred [59].
(§4) In the single long-term schedule, confluence cells were exposed to the test substances for 24 h and 72 h (Figure S1), then the cytotoxicity was measured by the MTT assay. Under the metronomic treatment, the cells were subjected to a short and/or repeated exposure of 2 h to the test substances (Figure S2), as follow: 1) single treatment, the cells were treated for 2 h, then washed and incubated for 72 h; 2) two-repeated treatments, the cells were exposed to the test substances for 2 h, then washed and incubated for functional recovery for further 2 h. After recovering, the cells were further treated with the test substances for 2 h, washed and incubated for 72 h. Finally, the cytotoxicity was measured by the MTT assay as described above.
(§5) RR represents the cytotoxicity enhancement ratio and allows to quantify the efficacy increase of a drug (A) in the presence of a chemosensitizing agent (B), by relating the IC50 of A alone (CA) and that of IC50 of its combination with B (CA+B).

[3] = test system: Mz-ChA-1 cholangiocarcinoma cells; experiment: Annexin-V-FITC fluorescence microscopy, semiquantitative; type: cell-based, human; settings: Mz-ChA-1, 24 h, β-caryophyllene 50 µM, doxorubicin 20 µM
Experimental: (§1) Apoptosis extent was evaluated by Annexin-V staining (Annexin V Apoptosis detection kit, Santa Cruz Biotechnology, DBA, Milan, Italy), which is known to specifically binds phosphatidylserine, a […] which is normally embedded in the inner leaflet of plasma membrane and externalized during apoptosis, as a result of the membrane changes. Therefore, apoptotic cells can be directly detected through their staining with the fluorochrome-conjugated Annexin V. The analysis was performed by both fluorescence microscopy and flow cytometry in order to both visualize the event and to achieve a quick and accurate quantification of apoptotic cells.

[4] = test system: H69 noncancerous cholangiocytes; experiment: Annexin-V-Cy3/CFDA flow cytometry (apoptotic and viable cells); type: cell-based; settings: for inhibition of viable cells (CF fluorescence): H69, 2 h and 24 h, maximum
Experimental: as §1
For flow cytometry analysis, the cells (1 × 10^6 cells) were grown in 6-well plates, treated with β-caryophyllene (50 µM) and doxorubicin (20 µM), alone and in combination for the required time exposure, then collected by trypsinization and resuspended in PBS in the presence of the fluorochrome Annexin-V-Cy3 (4 μg/mL in cell suspension). In order to detect viable cells, the nonfluorescent probe carboxyfluorescein diacetate (CFDA; 2 μg/mL in cell suspension), hydrolyzed in living cells by esterases to its fluorescent carboxyfluorescein metabolite (CF), was included too. For each sample, the mean fluorescence of Annexin-V-Cy3 (excitation/emission at 543/570 nm, respectively) and CF (excitation/emission at 492/514 nm, respectively) in 50,000 cells was measured using a BD Accuri^TM C6 flow cytometer, FL-2 and FL-1 channels respectively (BD Biosciences, Milan, Italy). Although standard flow cytometry apoptosis assays use Annexin V-FITC, we chosen the conjugate with Cy3 in order to avoid the overlapping in the excitation wavelength of annexin V-FITC and CF, which could interfere with the analysis. Cells undergoing apoptosis were also sorted by their typical forward- and side scatter (FSC-SSC) pattern, i.e., increased SSC and decreased FSC, respect to the viable cells. Multiparameter analysis and gating of forward and side scatter as well as fluorescence detection were performed using a BD Accuri^TM C6 Software version 1.0.264.21 (BD Biosciences, Milan, Italy).

[5] = test system: Mz-ChA-1 cholangiocarcinoma cells; experiment: cells; settings: Homo sapiens, combination with 50 µM β-caryophyllene
Experimental: as §3, §4
(§6) The type of interaction between β-caryophyllene and doxorubicin, i.e., synergy, additivity or antagonism, was evaluated by measuring three parameters: reversal ratio value (RR), combination index (CI) and isobolographic analysis (IB) [24].
as §5
(§7) CI gives a quantitative measure of the interaction and is calculated as follow: (CA,X/ICX,A) + (CB, X/ICX,B), in which CA,X and CB,X are the concentrations of A and B at the IC50 value of their combination, whereas ICX,A and ICX,B are the IC50 values of the substances alone. When the CI value was equal to, less or higher than 1, the interaction between test substances was evaluated as additivity, synergism and antagonism, respectively.
(§8) The isobolographic analysis, displaying the extent of the interaction between drug A and the potential chemosensitizer B, was obtained by a two-coordinate plot, wherein the IC50 concentrations of A and B were plotted on the x and y axes, corresponding to (CA, 0) and (C0, B), respectively. The substance concentrations used in the combination (CA+B) were placed in the same plot. A nonlinear regression analysis was carried out by GraphPad Prism™ 6.00 software, in order to connect the IC50 value of each drug alone and that of the combination, whereas the line connecting CA and CB represented an additive interaction. A synergism between A and B occurred when CA+B were located below the line, while the interaction was antagonistic when the values were above the line [60].

[6] = test system: Mz-ChA-1 cholangiocarcinoma cells
Experimental: as §3, §4, §6, §5, §7, §8

[7] = test system: glutathione in H69 noncancerous cholangiocytes; experiment: HPLC determination of intracellular GSH and GSSG; type: cell-based; settings: H69, 24 h
Experimental: (§2) Intracellular levels of reduced (GSH) and oxidized (GSSG) glutathione were measured by HPLC-UV, as previously described. Briefly, after treatments with β-caryophyllene (50 µM) and doxorubicin (20 µM), the harvested cells (1 × 10^6 cells) were suspended in 10% ice-cold TCA and centrifuged for 15 min at 9000× g, then supernatant was collected and GSH and GSSG measured by HPLC with UV detection at 215 nm. The separation was achieved using a InfinityLab poroshell 120 EC-C18 column (3 × 150 mm, 2.7 μm) at a flow rate of 0.8 mL/min, using the following elution gradient: 0–3 min 100% A + 0% B, 3–10 min from 100% A to 100% B. The mobile phase A contained 0.1% trifluoroacetic acid in water, whereas mobile phase B was 0.1% trifluoroacetic acid in water/acetonitrile (93:7). Under our chromatographic conditions, retention times of GSH and GSSG were 2.58 min and 7.01 min, respectively.

[8] = test system: γH2AX in H69 noncancerous cholangiocytes; experiment: Western blotting of phosphorylated H2AX (Ser139); type: cell-based; settings: for increase of γH2AX with respect to control: doxorubicin 20 µM
Experimental: (§9) To perform the analysis, the cells were seeded in 6-well plates, then subjected to the treatment with β-caryophyllene (50 µM) and doxorubicin (20 µM), alone and in combination, for the required time exposure, then harvested by centrifugation and washed in PBS. A lysis buffer, containing SDS (2% w/w), Tris-hydrochloride (20 mM; pH 7.4), urea (2 M), glycerol (10% w/w), sodium orthovanadate (2 mM), DTT (10 mM) and a protease inhibitors cocktail (1:100 dilution) was used to achieve the cell protein separation. The separated proteins were resolved by SDS-PAGE 10% TGX FastCast™ Acrylamide gel (BioRad, Segrate, Italy) and transferred on PVDF membranes (BioRad, Segrate, Italy) by using a Trans-Blot® Turbo™ Transfer System (BioRad, Segrate, Italy). The membranes were blocked with a 0.2% w/v I-block (Thermo Fisher Scientific, Rodano, Italy) in Tris-buffered saline containing 0.05% Tween-20 (TBS-T), then stained with the desired primary antibodies. […] After rinsing three times in TBS-T to remove unbound primary antibody, the membranes were incubated for an additional hour with the appropriate horseradish peroxidase- or alkaline phosphatase-conjugated secondary antibody (Jackson ImmunoResearch, Pero, Italy). […] Each experiment was performed at least in three replicates.

[9] = test system: H69 noncancerous cholangiocytes; experiment: Annexin-V-FITC fluorescence microscopy, semiquantitative; type: cell-based; settings: H69, 24 h, β-caryophyllene 50 µM, doxorubicin 20 µM
Experimental: as §1

[10] = test system: phospho(Tyr705)-STAT3 in Mz-ChA-1 cells; experiment: Western blotting of phospho(Tyr705)-STAT3; type: cell-based, human; settings: for increase of phospho(Tyr705)-STAT3 compared the control: β-caryophyllene 50 µM, doxorubicin 20 µM
Experimental: as §9

[11] = test system: glutathione in Mz-ChA-1 cholangiocarcinoma cells; experiment: HPLC determination of intracellular GSH and GSSG; type: cell-based, human
Experimental: as §2

[12] = β-caryophyllene 50 µM, doxorubicin 20 µM
[13] = H69, double repeated 2 h exposure + 72 h recovery
[14] = H69, single 2 h exposure + 72 h recovery
[15] = 24 h, read-out: IC50 (CL), Mz-ChA-1, 24 h exposure
[16] = 72 h, read-out: IC50 (CL), Mz-ChA-1, 72 h exposure
[17] = read-out: IC50 (CL), Mz-ChA-1, double repeated 2 h exposure + 72 h recovery
[18] = read-out: IC50 (CL), Mz-ChA-1, single 2 h exposure + 72 h recovery

COc1cccc2c1C(=O)c1c(O)c3c(c(O)c1C2=O)C[C@@](O)(C(=O)CO)C[C@@H]3O[C@H]1C[C@H](N)[C@H](O)[C@H](C)O1 [Doxorubicin, doxorubicin hydrochloride]
increase of cell accumulation in S-phase compared the control ([1]; doxorubicin 20 µM): ~1.6 fold
reduction of G0/G1 phase ([1]; doxorubicin 20 µM): at least 4 fold
increase in G2/M phase vs. control [1, 12]: about 1.4 fold
IC50 ([2]; 24 h, H69, 24 h exposure): 13.6 µM
IC50 ([2]; 72 h, H69, 72 h exposure): 4 µM
IC50 reduction, double short exposure compared the single one ([2]; H69): 1.5 fold
cytotoxicity lowering, double repeated metronomic vs 24 h exposure (IC50) ([2]; H69): ~3 fold
cytotoxicity lowering, single metronomic vs 24 h exposure (IC50) ([2]; H69): ~7 fold
fold more toxic after 72 h with respect to 24 h (IC50 comparison) ([2]; H69): about 3 fold
inhibition of cell viability ([2]; H69, 10 µM, 24 h): about 40%
fold more toxic than the 24 h protocol ([2]; H69, 10 µM, 72 h): 2 fold
maximal cytotoxicity ([2]; H69, 10 µM, 72 h): about 80%
cytotoxicity ([2]; double repeated 2 h exposure): ~70%
cytotoxicity ([2]; single 2 h exposure): about 60%
maximum inhibition of cell viability ([2]; H69, 200 µM, 24 h): about 80%
IC50 [2, 13]: 54.4 µM
fold safer than the long-term exposures of 72 h ([2]; H69, metronomic schedules): about 100 fold
nontoxic up to (concentration) ([2]; H69, metronomic schedules): up to 20 μM
IC50 [2, 14]: 81.8 µM
Annexin V Mz-ChA-1 (semiquantitative apoptosis score) [3]: + (11%–30% = +)
inhibition of viable cells (CF fluorescence) [4]: ≤ 1.4 fold
increase of apoptotic rate ([4]; H69, 24 h, doxorubicin 20 µM): ~1.5 fold
IC50 [5, 15]: 27.8 µM
IC50 [5, 16]: 3.8 µM
IC50 [5, 17]: 11.6 µM
IC50 [5, 18]: 19.8 µM
cytotoxicity increase produced by the double repeated exposure [6]: 10%
IC50 lowering, double repeated 2 h metronomic vs 24 h protocol ([6]; Mz-ChA-1): ~2.4 fold
IC50 lowering, single 2 h metronomic vs 24 h protocol ([6]; Mz-ChA-1): about 1.4 fold
IC50 reduction, double short exposure vs single 2 h treatment ([6]; Mz-ChA-1): 1.7 fold
anticancer power under metronomic conditions lower than after 72 h ([6]; Mz-ChA-1): 3- to 5 fold
potency increase, 72 h with respect to 24 h (IC50 comparison) ([6]; Mz-ChA-1): at least 7 fold
inhibition of cell viability ([6]; Mz-ChA-1, 1 µM, 72 h): about 20%
inhibition of cell viability ([6]; Mz-ChA-1, 10 μM, 2 h exposure protocol): ≥ 35%
inhibition of cell viability ([6]; Mz-ChA-1, 10 µM, 24 h): about 20%
inhibition of cell viability ([6]; Mz-ChA-1, 10 µM, 72 h): about 80%
maximum inhibition of cell viability ([6]; Mz-ChA-1, 100 μM, both metronomic schedules): 80%
maximum inhibition of cell viability ([6]; Mz-ChA-1, 200 µM, 24 h): about 80%
cell viability reduction vs. control ([6]; Mz-ChA-1, concentrations lower than 10 μM, 2 h exposure protocol): < 20%
change in the amount of GSSG [7]: slightly but not significantly reduced
depletion of GSH [7]: ~2 fold
lowering of basal GSH/GSSG ratio [7]: ~1.6 fold
increase of γH2AX with respect to control ([8]; H69, 2 h): ~40 fold
increase of γH2AX with respect to control ([8]; H69, 24 h): ~200 fold
Annexin V H69 (semiquantitative apoptosis score) [9]: + (11%–30% = +)
increase of phospho(Tyr705)-STAT3 compared the control ([10]; Mz-ChA-1, 2 h): ~100 fold
increase of phospho(Tyr705)-STAT3 compared the control ([10]; Mz-ChA-1, 24 h): ~20 fold
higher phospho(Tyr705)-STAT3 expression in Mz-ChA-1 with respect H69 cholangiocytes ([10]; doxorubicin-promoted, Mz-ChA-1 vs H69): ~10 fold
lowering of GSH/GSSG ratio ([11]; Mz-ChA-1, 2 h): 1.3 fold
change in GSH ([11]; Mz-ChA-1, 2 h, doxorubicin 20 µM): not significantly decreased
change in GSSG ([11]; Mz-ChA-1, 24 h): without changes in the GSSG amount
lowering of GSH/GSSG ratio ([11]; Mz-ChA-1, 24 h): 4 fold
reduction of GSH ([11]; Mz-ChA-1, 24 h, doxorubicin 20 µM): at least 3 fold

C=C1CC/C=C(\C)CC[C@@H]2[C@@H]1CC2(C)C [β-Caryophyllene, β-caryophyllene]
increase in G0/G1 phase vs. control ([1]; β-caryophyllene 50 µM): about 1.2 fold
increase in G2/M phase vs. control [1, 12]: about 1.5 fold
IC50 ([2]; 24 h, H69, 24 h exposure): 148 µM
IC50 ([2]; 72 h, H69, 72 h exposure): 146 µM
maximum cytotoxicity increase, long-term compared metronomic treatments (IC50) ([2]; H69): about 1.2 fold
reduction of cell viability ([2]; H69, 50 μM): lower than 20%
inhibition of cell viability vs. control ([2]; H69, 125 μM, 24 h and 72 h): about 40%
effect on cell proliferation ([2]; H69, 125 μM, metronomic schedules): without affecting cell proliferation
IC50 [2, 13]: 161 µM
IC50 [2, 14]: 177 µM
Annexin V Mz-ChA-1 (semiquantitative apoptosis score) [3]: +/- (6%–10% = +/−)
inhibition of viable cells (CF fluorescence) [4]: about 1.2 fold
lowering of basal apoptosis (annexin-V-Cy3) ([4]; H69, both time exposures, β-caryophyllene 50 µM): 1.2 fold
IC50 [5, 15]: 124 µM
IC50 [5, 16]: 90 µM
IC50 [5, 17]: 140 µM
IC50 [5, 18]: 172 µM
fold more toxic after 72 h with respect to the other schedules (IC50 comparison) ([6]; Mz-ChA-1): 1.4- to 2 fold
reduction of cell viability ([6]; Mz-ChA-1, 50 μM): lower than 20%
inhibition of cell viability vs. control ([6]; Mz-ChA-1, concentrations higher than 50 μM, 24 h and 72 h): about 20%
nontoxic up to (concentration) ([6]; Mz-ChA-1, metronomic schedule): up to 125 μM
change in the amount of GSSG [7]: slightly increased
basal GSH/GSSG ratio ([7]; β-caryophyllene 50 µM): retained
enhancement of GSH ([7]; β-caryophyllene 50 µM): ~1.5 fold
effect on γH2AX levels ([8]; H69, 50 µM, 2 h and 24 h): null effects
Annexin V H69 (semiquantitative apoptosis score) [9]: – (0%–5% = negative)
increase of phospho(Tyr705)-STAT3 compared the control ([10]; Mz-ChA-1, 2 h): ≥ 3 fold
increase of phospho(Tyr705)-STAT3 compared the control ([10]; Mz-ChA-1, 24 h): ≥ 3 fold
change in GSSG ([11]; Mz-ChA-1, 24 h): without changes in GSSG
increase of GSH levels vs. control ([11]; Mz-ChA-1, 24 h, β-caryophyllene 50 µM): about 2.5 fold
increase of GSH/GSSG ratio ([11]; Mz-ChA-1, β-caryophyllene alone): about 2 fold
